Results from patent US8192962B2, “Processes for detecting toxic substances” (Daikin Industries, Ltd., priority 2001, dated 2012).

Test system: Stress protein genes
Experiment: DNA chip mRNA expression in yeast, stress protein genes (Table 6)
Format: cell-based, Saccharomyces cerevisiae S288C
Procedure, shortened: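 Values are treated/untreated fluorescence ratios from a whole-genome yeast DNA chip hybridized over 12 hours at 65° C with Cy3- or Cy5-labelled cDNA from poly(A) mRNA. Log-phase S288C yeast in YPD at 25° C had received a single toxic chemical for two hours, dosed to slow growth without killing.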

## CCCCCCCCCCCCc1ccc(S(=O)(=O)[O-])cc1.[Na+] [(17), sodium dodecylbenzosulfonate]
Yeast gene YAL005C
  The level of expressed mRNA in the presence of chemical substance/The level of expressed mRNA in the absence of chemical substance: 0.8
Yeast gene YAL015C
  The level of expressed mRNA in the presence of chemical substance/The level of expressed mRNA in the absence of chemical substance: 1.1
Yeast gene YBL075C
  The level of expressed mRNA in the presence of chemical substance/The level of expressed mRNA in the absence of chemical substance: 1.2
Yeast gene YBL093C
  The level of expressed mRNA in the presence of chemical substance/The level of expressed mRNA in the absence of chemical substance: 1.4
Yeast gene YBR044C
  The level of expressed mRNA in the presence of chemical substance/The level of expressed mRNA in the absence of chemical substance: 0.9
Yeast gene YBR054W
  The level of expressed mRNA in the presence of chemical substance/The level of expressed mRNA in the absence of chemical substance: 0.7
Yeast gene YBR067C
  The level of expressed mRNA in the presence of chemical substance/The level of expressed mRNA in the absence of chemical substance: 0.5
Yeast gene YBR072W
  The level of expressed mRNA in the presence of chemical substance/The level of expressed mRNA in the absence of chemical substance: 1.8
Yeast gene YBR126C
  The level of expressed mRNA in the presence of chemical substance/The level of expressed mRNA in the absence of chemical substance: 1.5
Yeast gene YBR169C
  The level of expressed mRNA in the presence of chemical substance/The level of expressed mRNA in the absence of chemical substance: 1.3
Yeast gene YCL035C
  The level of expressed mRNA in the presence of chemical substance/The level of expressed mRNA in the absence of chemical substance: 2.6
Yeast gene YCR021C
  The level of expressed mRNA in the presence of chemical substance/The level of expressed mRNA in the absence of chemical substance: 0.7
Yeast gene YCR060W
  The level of expressed mRNA in the presence of chemical substance/The level of expressed mRNA in the absence of chemical substance: 1.2
Yeast gene YCR083W
  The level of expressed mRNA in the presence of chemical substance/The level of expressed mRNA in the absence of chemical substance: 1.3
Yeast gene YDL022W
  The level of expressed mRNA in the presence of chemical substance/The level of expressed mRNA in the absence of chemical substance: 1.0
Yeast gene YDL025C
  The level of expressed mRNA in the presence of chemical substance/The level of expressed mRNA in the absence of chemical substance: 1.0
Yeast gene YDR033W
  The level of expressed mRNA in the presence of chemical substance/The level of expressed mRNA in the absence of chemical substance: 0.7
Yeast gene YDR077W
  The level of expressed mRNA in the presence of chemical substance/The level of expressed mRNA in the absence of chemical substance: 1.4
Yeast gene YDR098C
  The level of expressed mRNA in the presence of chemical substance/The level of expressed mRNA in the absence of chemical substance: 1.0
Yeast gene YDR155C
  The level of expressed mRNA in the presence of chemical substance/The level of expressed mRNA in the absence of chemical substance: 1.2
Yeast gene YDR258C
  The level of expressed mRNA in the presence of chemical substance/The level of expressed mRNA in the absence of chemical substance: 1.3
Yeast gene YDR293C
  The level of expressed mRNA in the presence of chemical substance/The level of expressed mRNA in the absence of chemical substance: 1.4
Yeast gene YDR436W
  The level of expressed mRNA in the presence of chemical substance/The level of expressed mRNA in the absence of chemical substance: 0.9
Yeast gene YDR513W
  The level of expressed mRNA in the presence of chemical substance/The level of expressed mRNA in the absence of chemical substance: 1.3
Yeast gene YDR519W
  The level of expressed mRNA in the presence of chemical substance/The level of expressed mRNA in the absence of chemical substance: 1.8
Yeast gene YEL030W
  The level of expressed mRNA in the presence of chemical substance/The level of expressed mRNA in the absence of chemical substance: 0.9
Yeast gene YEL039C
  The level of expressed mRNA in the presence of chemical substance/The level of expressed mRNA in the absence of chemical substance: 0.7
Yeast gene YER042W
  The level of expressed mRNA in the presence of chemical substance/The level of expressed mRNA in the absence of chemical substance: 0.7
Yeast gene YER057C
  The level of expressed mRNA in the presence of chemical substance/The level of expressed mRNA in the absence of chemical substance: 1.1
Yeast gene YER103W
  The level of expressed mRNA in the presence of chemical substance/The level of expressed mRNA in the absence of chemical substance: 1.4
Yeast gene YER125W
  The level of expressed mRNA in the presence of chemical substance/The level of expressed mRNA in the absence of chemical substance: 1.0
Yeast gene YFL014W
  The level of expressed mRNA in the presence of chemical substance/The level of expressed mRNA in the absence of chemical substance: 1.5
Yeast gene YFL016C
  The level of expressed mRNA in the presence of chemical substance/The level of expressed mRNA in the absence of chemical substance: 1.2
Yeast gene YFL020C
  The level of expressed mRNA in the presence of chemical substance/The level of expressed mRNA in the absence of chemical substance: 1.5
Yeast gene YFR052W
  The level of expressed mRNA in the presence of chemical substance/The level of expressed mRNA in the absence of chemical substance: 1.2
Yeast gene YGL073W
  The level of expressed mRNA in the presence of chemical substance/The level of expressed mRNA in the absence of chemical substance: 2.5
Yeast gene YGL115W
  The level of expressed mRNA in the presence of chemical substance/The level of expressed mRNA in the absence of chemical substance: 0.8
Yeast gene YGL181W
  The level of expressed mRNA in the presence of chemical substance/The level of expressed mRNA in the absence of chemical substance: 1.0
Yeast gene YGR088W
  The level of expressed mRNA in the presence of chemical substance/The level of expressed mRNA in the absence of chemical substance: 0.9
Yeast gene YHL028W
  The level of expressed mRNA in the presence of chemical substance/The level of expressed mRNA in the absence of chemical substance: 1.6
Yeast gene YHL046C
  The level of expressed mRNA in the presence of chemical substance/The level of expressed mRNA in the absence of chemical substance: 0.9
Yeast gene YHR030C
  The level of expressed mRNA in the presence of chemical substance/The level of expressed mRNA in the absence of chemical substance: 2.0
Yeast gene YHR057C
  The level of expressed mRNA in the presence of chemical substance/The level of expressed mRNA in the absence of chemical substance: 1.6
Yeast gene YHR104W
  The level of expressed mRNA in the presence of chemical substance/The level of expressed mRNA in the absence of chemical substance: 1.9
Yeast gene YIL011W
  The level of expressed mRNA in the presence of chemical substance/The level of expressed mRNA in the absence of chemical substance: 0.8
Yeast gene YIL033C
  The level of expressed mRNA in the presence of chemical substance/The level of expressed mRNA in the absence of chemical substance: 1.0
Yeast gene YIR037W
  The level of expressed mRNA in the presence of chemical substance/The level of expressed mRNA in the absence of chemical substance: 1.7
Yeast gene YIR038C
  The level of expressed mRNA in the presence of chemical substance/The level of expressed mRNA in the absence of chemical substance: 2.8
Yeast gene YJL128C
  The level of expressed mRNA in the presence of chemical substance/The level of expressed mRNA in the absence of chemical substance: 1.0
Yeast gene YJL158C
  The level of expressed mRNA in the presence of chemical substance/The level of expressed mRNA in the absence of chemical substance: 1.4
Yeast gene YJL159W
  The level of expressed mRNA in the presence of chemical substance/The level of expressed mRNA in the absence of chemical substance: 1.4
Yeast gene YJL165C
  The level of expressed mRNA in the presence of chemical substance/The level of expressed mRNA in the absence of chemical substance: 1.3
Yeast gene YJR045C
  The level of expressed mRNA in the presence of chemical substance/The level of expressed mRNA in the absence of chemical substance: 0.7
Yeast gene YJR090C
  The level of expressed mRNA in the presence of chemical substance/The level of expressed mRNA in the absence of chemical substance: 1.1
Yeast gene YKL161C
  The level of expressed mRNA in the presence of chemical substance/The level of expressed mRNA in the absence of chemical substance: 1.4
Yeast gene YKL163W
  The level of expressed mRNA in the presence of chemical substance/The level of expressed mRNA in the absence of chemical substance: 0.8
Yeast gene YKL164C
  The level of expressed mRNA in the presence of chemical substance/The level of expressed mRNA in the absence of chemical substance: 0.8
Yeast gene YKL210W
  The level of expressed mRNA in the presence of chemical substance/The level of expressed mRNA in the absence of chemical substance: 0.7
Yeast gene YKR053C
  The level of expressed mRNA in the presence of chemical substance/The level of expressed mRNA in the absence of chemical substance: 2.8
Yeast gene YLL024C
  The level of expressed mRNA in the presence of chemical substance/The level of expressed mRNA in the absence of chemical substance: 0.5
Yeast gene YLL026W
  The level of expressed mRNA in the presence of chemical substance/The level of expressed mRNA in the absence of chemical substance: 1.7
Yeast gene YLL039C
  The level of expressed mRNA in the presence of chemical substance/The level of expressed mRNA in the absence of chemical substance: 1.6
Yeast gene YLL060C
  The level of expressed mRNA in the presence of chemical substance/The level of expressed mRNA in the absence of chemical substance: 1.9
Yeast gene YLR006C
  The level of expressed mRNA in the presence of chemical substance/The level of expressed mRNA in the absence of chemical substance: 1.6
Yeast gene YLR109W
  The level of expressed mRNA in the presence of chemical substance/The level of expressed mRNA in the absence of chemical substance: 1.1
Yeast gene YLR259C
  The level of expressed mRNA in the presence of chemical substance/The level of expressed mRNA in the absence of chemical substance: 0.8
Yeast gene YML007W
  The level of expressed mRNA in the presence of chemical substance/The level of expressed mRNA in the absence of chemical substance: 1.0
Yeast gene YML070W
  The level of expressed mRNA in the presence of chemical substance/The level of expressed mRNA in the absence of chemical substance: 1.2
Yeast gene YMR021C
  The level of expressed mRNA in the presence of chemical substance/The level of expressed mRNA in the absence of chemical substance: 3.3
Yeast gene YMR173W
  The level of expressed mRNA in the presence of chemical substance/The level of expressed mRNA in the absence of chemical substance: 1.9
Yeast gene YMR186W
  The level of expressed mRNA in the presence of chemical substance/The level of expressed mRNA in the absence of chemical substance: 0.7
Yeast gene YNL064C
  The level of expressed mRNA in the presence of chemical substance/The level of expressed mRNA in the absence of chemical substance: 0.7
Yeast gene YNL160W
  The level of expressed mRNA in the presence of chemical substance/The level of expressed mRNA in the absence of chemical substance: 1.0
Yeast gene YNL241C
  The level of expressed mRNA in the presence of chemical substance/The level of expressed mRNA in the absence of chemical substance: 1.0
Yeast gene YNR076W
  The level of expressed mRNA in the presence of chemical substance/The level of expressed mRNA in the absence of chemical substance: 1.5
Yeast gene YOL064C
  The level of expressed mRNA in the presence of chemical substance/The level of expressed mRNA in the absence of chemical substance: 1.2
Yeast gene YOL161C
  The level of expressed mRNA in the presence of chemical substance/The level of expressed mRNA in the absence of chemical substance: 1.1
Yeast gene YOR008C
  The level of expressed mRNA in the presence of chemical substance/The level of expressed mRNA in the absence of chemical substance: 0.8
Yeast gene YOR009W
  The level of expressed mRNA in the presence of chemical substance/The level of expressed mRNA in the absence of chemical substance: 0.9
Yeast gene YOR010C
  The level of expressed mRNA in the presence of chemical substance/The level of expressed mRNA in the absence of chemical substance: 1.4
Yeast gene YOR027W
  The level of expressed mRNA in the presence of chemical substance/The level of expressed mRNA in the absence of chemical substance: 0.9
Yeast gene YOR208W
  The level of expressed mRNA in the presence of chemical substance/The level of expressed mRNA in the absence of chemical substance: 1.6
Yeast gene YPL059W
  The level of expressed mRNA in the presence of chemical substance/The level of expressed mRNA in the absence of chemical substance: 1.8
Yeast gene YPL106C
  The level of expressed mRNA in the presence of chemical substance/The level of expressed mRNA in the absence of chemical substance: 0.5
Yeast gene YPL140C
  The level of expressed mRNA in the presence of chemical substance/The level of expressed mRNA in the absence of chemical substance: 0.9
Yeast gene YPL194W
  The level of expressed mRNA in the presence of chemical substance/The level of expressed mRNA in the absence of chemical substance: 1.0
Yeast gene YPL223C
  The level of expressed mRNA in the presence of chemical substance/The level of expressed mRNA in the absence of chemical substance: 1.0
Yeast gene YPL240C
  The level of expressed mRNA in the presence of chemical substance/The level of expressed mRNA in the absence of chemical substance: 0.8
Yeast gene YPR005C
  The level of expressed mRNA in the presence of chemical substance/The level of expressed mRNA in the absence of chemical substance: 1.0
Yeast gene YPR026W
  The level of expressed mRNA in the presence of chemical substance/The level of expressed mRNA in the absence of chemical substance: 0.9
